Source: patent US8697653B2, “Microparticle formulation for pulmonary drug delivery of anti infective molecule for treatment of infectious diseases” (priority 2010, dated 2014)

Experiments:
[1] = Estimation of solubility in simulated lung fluid (SLF, pH 7.4) by HPLC; type: physicochemical; conditions: fassgf or other biorelevant, thermodynamic from solid
Method: SLF was prepared by method based on Respiratory Physiology & Neurobiology, 2008, 162, 73-79. 9 g of sodium chloride, 0.220 g of calcium chloride and 6.5 g of lactose were dissolved in 1000 mL of water. The pH of the resultant solution was adjusted to 7.4. Solubility of compound of formula I in SLF was measured at two temperatures, 45° C. and 60° C. For this, 1 mg of compound of formula I was added to 3 mL of SLF (in duplicates) and after vortexing for few seconds was incubated in water bath set at the required temperatures. Solubility was measured at one hour intervals for three hours. The solution was filtered through 0.22 μm filter and the filtrate was injected on HPLC. Solubility was calculated with respect to appropriate calibration curve.

[2] = Physical properties: solubility in solvents and water; type: physicochemical; conditions: chloroform, ethyl acetate, methanol, water
Method: • Column: Eurospher RP-18, (3μ, 4.6×125 mm) • Solvent system: Gradient (0% acetonitrile to 100% in 15 minutes against water, followed by 100% acetonitrile for 5 minutes) • Flow rate: 1 mL/minute • Detection (UV): 245 nm • Retention time: compound of formula I (12 to 13 minutes) Physical & Spectral properties of the compound of formula I: • Appearance: White powder • Melting point: 240° C.

[3] = test system: MRC5, L929 and A549 cell lines; assay: In vitro cytocompatibility assay, all cell lines evaluated; type: cell-based; conditions: all the different cell lines evaluated
Method: The assay was carried out based on the reference Journal of Biomedical Materials Research, 2009, […], 281-292. This assay was performed to evaluate the cytocompatibility of the formulation of Example 9 Method A with the relevant cell lines and standard cells which are specified by the regulatory agencies. Cell density: 10,000/well for MRC 5 and […], and 3000/well for A549 Time points: 24 hours and 48 hours. The toxicological evaluation was done using The CellTiter 96 Aqueous One Solution Assay by Promega (Cat. no: G3582). The assay is a standard colorimetric method for determining the number of viable cells in proliferation or cytotoxicity assays. The MTS used in the assay is bioreduced by cells into a colored formazan product that is soluble in tissue culture medium. The quantity of formazan product as measured by the amount of 490 nm absorbance is directly proportional to the number of living cells in culture. […] The ELISA 96-well plate was then subjected to absorbance recordings at 490 nm (450-540 nm) with a 96-well plate reader. The average 490 nm absorbance from the “no-cell” control was subtracted from all other absorbance values and the corrected absorbance was utilized for further calculations. (Background absorbance from “no-cell” control is typically 0.2 to 0.3 absorbance units after 4 hours of incubation).

rat alveolar macrophages = assay: In vitro macrophage uptake assay; type: cell-based
Method: The assay was carried out based on the reference Respiratory Research, 2009, 10, 44.
Bronchoalveolar lavage washings from the rats were taken after appropriate ethical permission. Sterile warmed saline was introduced into the lung and then removed by suction. Bronchoalveolar lavage fluid was transported on icepacks (usually 100 to 200 mL of bronchoalveolar lavage fluid per donor is desired). The fluid was subjected to centrifugation at 250 g for 10 minutes and the cells were collected. Pooled the cell pellets by resuspending the cells in a total of 10 mL of HBSS. 100 μL aliquot was removed and stained with Wright-Giemsa stain to do a differential cell count. The cell count was adjusted and plated the cells in macrophage culture medium (HAM F12 medium, Amimed, Switzerland). 0.5 mL of the cell suspension was added to each of the 6 well tissue culture plates with 0.5 mL of the macrophage culture medium. The cells were incubated for 24 hours at 37° C. and 5% CO2. Cell adherence and cell growth was evaluated and treated with the formulation of Example 9 Method A tagged with sulforhodamine dye. Post treatment the cells were evaluated for fluorescence. This fluorescence results for selective uptake of the formulation by the alveolar macrophages.

[4] = Pilot in vivo lung deposition study (Example 20); design: species or system Guinea pigs; conditions: guinea pig, lungs, 10 mg/kg aerosolized, passive breathing, read-out: compound of formula I deposited
Method: (§1) The assay was done as reported in The AAPS Journal, 2005, 7 (1), E20-E41.
A pilot in vivo lung deposition study was carried out as per the reference mentioned. Guinea pigs were divided in three groups. Group 1 received formulation of Example 9 Method A, group 2 received unformulated compound of formula I and group 3 was untreated (naïve group). 10 mg/kg of the formulation was aerosolized and the animals were allowed to breathe passively. Following administration of the formulation of Example 9 Method A the animals were sacrificed at 30 minutes time point. The lungs were collected and analyzed by HPLC.

[5] = Pulmonary bioavailability, nose-only exposure lung deposition (Example 21); type: in vivo, Guinea pigs; conditions: 3 mg/kg
Method: as §1
(§2) A nose-only exposure in vivo lung deposition study was carried out as per the reference mentioned. Guinea pigs were divided in two groups. Group 1 received unformulated compound of formula I (3 mg/kg) and group 2 received formulation of Example 9 Method A (3 mg/kg). The unformulated compound of formula I and formulation of Example 9 Method A were aerosolized and the nose-only exposure was carried out using jet nebulizer wherein the nebulization period was one hour. Following aerosol administration, the animals were sacrificed at 1 hour, 2 hours, 6 hours, 12 hours and 24 hours post aerosol exposure and the lungs were collected and analyzed to quantitate the amount of compound of formula I (ng/g) deposited in the lung by LC-MS.

[6] = Cumulative accumulation after once a day dosing for 5 days (Example 22); design: species or system Guinea pigs; conditions: guinea pig, in vivo; lung, 3 mg/kg, 1 hour nebulization everyday for five consecutive days, sacrificed on 6th day; read-out: Compound of formula I deposited
Method: Evaluation of cumulative accumulation of formulation of Example 9 Method A after once a day dosing for 5 days for nebulization exposure period of 1 hour/day The assay was done as reported in The AAPS Journal, 2005, 7 (1), E20-E41.
as §2, with “hour everyday for five consecutive days and” for “hour. Following aerosol administration,”, “on 6th day. The” for “at 1 hour, 2 hours, 6 hours, 12 hours and 24 hours post aerosol exposure and the”, “LC-MS. LC-MS conditions are as provided in Tables 15, 16 and 17 of Example 21.” for “LC-MS.”

[7] = Dose scheduling, nose-only exposure lung deposition (Example 23); type: in vivo, Guinea pigs; conditions: 3 mg/kg, regimen not stated
Method: To evaluate dose scheduling of the formulation of Example 9 Method A The assay was done as reported in The AAPS Journal, 2005, 7 (1), E20-E41.
A nose-only exposure in vivo lung deposition study was carried out as per the reference mentioned. Guinea pigs were divided in three groups. Group 1 received unformulated compound of formula I (3 mg/kg); group 2 received formulation of Example 9 Method A (3 mg/kg) once a day for one day and group 3 received formulation of Example 9 Method A (3 mg/kg) twice a day for one day. The unformulated compound of formula I and formulation of Example 9 Method A were aerosolized and the nose-only exposure was carried out using jet nebulizer. The animals were sacrificed and the lungs were collected and analyzed to quantitate the amount of compound of formula I (ng/g) deposited in the lung by LC-MS. LC-MS conditions are as provided in Tables 15, 16 and 17 of Example 21.

[8] = Antimicrob. Agents Chemother., 1999, 37, 281-286; cited from earlier work

For `C=C(NC(=O)C(=C)NC(=O)c1csc(C2=NC3c4csc(n4)C4NC(=O)c5csc(n5)C(C(C)(O)C(C)O)NC(=O)C5CSC(=N5)/C(=C\C)NC(=O)C(C(C)O)NC(=O)c5csc(n5)C3(CC2)NC(=O)C(C)NC(=O)C(=C)NC(=O)C(C)NC(=O)C(C(C)C)NC2C=Cc3c(C(C)O)cc(nc3C2O)C(=O)OC4C)n1)C(N)=O` (stereo not shown) [Compound of formula I], the solubility at 1 h ([1]; SLF pH 7.4, 45° C.) was 1.3 µg/mL, the solubility at 2 h ([1]; SLF pH 7.4, 45° C.) was 0.9 µg/mL and the solubility at 3 h ([1]; SLF pH 7.4, 45° C.) was 1.2 µg/mL. The solubility at 1 h ([1]; SLF pH 7.4, 60° C.) was 0.6 µg/mL, the solubility at 2 h ([1]; SLF pH 7.4, 60° C.) was 0.7 µg/mL and the solubility at 3 h ([1]; SLF pH 7.4, 60° C.) was 1.3 µg/mL. For the same compound, the “Solubility (in words)” value [2] was “Soluble in chloroform, ethyl acetate, methanol and insoluble in water”, the “Cytotoxicity (in words)” value [3] was “exhibited cytotoxicity” and the “Uptake by alveolar macrophages (in words)” value (rat alveolar macrophages) was “does not show active uptake”. For the same compound, the “Compound concentration in alveolar macrophages” value (from here on “Compound concentration”) (rat alveolar macrophages; 30 minutes) was 2010 ng/mL, the “Compound concentration” value (rat alveolar macrophages; 60 minutes) was 2010 ng/mL and the “Compound concentration” value (rat alveolar macrophages; 120 minutes) was 1990 ng/mL. For the same compound, the concentration at 30 min [4] was 0 ng/g, the “Ability to reach the lungs on nebulization (in words)” value ([5]; nose-only nebulization) was “unable to reach the lungs” and the concentration at 1 h ([5]; guinea pig, in vivo, lung, nose-only, 1 hour nebulization, 1 hour post exposure, read-out: Compound of formula I deposited) was 1 ng/g. For the same compound, the concentration at 2 h ([5]; guinea pig, in vivo, lung, nose-only, 1 hour nebulization, 2 hours post exposure, read-out: Compound of formula I deposited) was 1 ng/g, the concentration at 6 h ([5]; guinea pig, in vivo, lung, nose-only, 1 hour nebulization, 6 hours post exposure, read-out: Compound of formula I deposited) was 1 ng/g and the concentration at 12 h ([5]; guinea pig, in vivo, lung, nose-only, 1 hour nebulization, 12 hours post exposure, read-out: Compound of formula I deposited) was 1 ng/g. For the same compound, the concentration at 24 h ([5]; guinea pig, in vivo, lung, nose-only, 1 hour nebulization, 24 hours post exposure, read-out: Compound of formula I deposited) was 1 ng/g, the concentration at 6 day [6] was 1 ng/g and the “Compound of formula I deposited” value [7] was 0 ng/g.
For `CN[C@H](CC(C)C)C(=O)N[C@H]1C(=O)N[C@@H](CC(N)=O)C(=O)N[C@H]2C(=O)N[C@H]3C(=O)N[C@H](C(=O)N[C@H](C(=O)O)c4cc(O)cc(O)c4-c4cc3ccc4O)[C@H](O)c3ccc(c(Cl)c3)Oc3cc2cc(c3O[C@@H]2O[C@H](CO)[C@@H](O)[C@H](O)[C@H]2O[C@H]2C[C@](C)(N)[C@H](O)[C@H](C)O2)Oc2ccc(cc2Cl)[C@H]1O` [Vancomycin], the “Lung concentrations as % of the plasma concentrations” value [8] is listed as 20%.
